In patent publication US20240226106A1, “INHIBITORS OF PLASMA KALLIKREIN” (SHIRE HUMAN GENETIC THERAPIES, INC., priority 2021, published 2024):

molecular target: human activated kallikrein enzyme (Homo sapiens, UniProt P03952); experiment: Inhibition of human activated plasma kallikrein, fluorogenic peptide substrate (PFR-AMC), 500 pM enzyme format; type: biochemical; settings: 500 pM activated kallikrein, 30 min preincubation, 10 min reaction, room temperature, read-out: Primary Dose Response Assay: Average EC50
Method: Compounds were evaluated for inhibition of the human activated kallikrein enzyme in two formats of an assay employing a fluorogenic peptide substrate. In one assay format, the concentrations of reagents were as follows: 20 mM Tris pH 7.5, 1 mM EDTA, 150 mM sodium chloride, 0.1% PEG-400, 0.1% Triton X-100, 500 pM activated kallikrein enzyme, […] Pro-Phe-Arg-7-amido-4-methylcoumarin (PFR-AMC) substrate. Prior to reaction initiation with substrate, enzyme and inhibitors were preincubated for 30 min at room temperature. After initiation with substrate, reactions were incubated for 10 min at room temperature and fluorescence emission at 460 nm from 380 nm excitation measured with a microplate reader. In another assay format, the concentrations of reagents were as follows: 20 mM Tris pH 7.5, 1 mM EDTA, 150 mM sodium chloride, 0.1% PEG-400, 0.1% Triton X-100, 5 pM activated kallikrein enzyme, 300 uM PFR-AMC substrate. Prior to reaction initiation with substrate, enzyme and inhibitors were preincubated for 30 min at room temperature. After initiation with substrate, reactions were incubated for 18 hr at room temperature and fluorescence emission at 460 nm from 380 nm excitation measured with a microplate reader.

Chain of human activated kallikrein enzyme (P03952 391-638 limits assumed): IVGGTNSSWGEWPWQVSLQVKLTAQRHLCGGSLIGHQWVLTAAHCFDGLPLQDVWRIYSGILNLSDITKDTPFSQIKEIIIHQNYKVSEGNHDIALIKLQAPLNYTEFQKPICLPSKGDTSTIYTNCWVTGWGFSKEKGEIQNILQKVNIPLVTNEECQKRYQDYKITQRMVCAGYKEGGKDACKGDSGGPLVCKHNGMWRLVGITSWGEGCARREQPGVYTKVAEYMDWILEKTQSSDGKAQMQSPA
Chain of human activated kallikrein enzyme (P03952 20-390 partner limits assumed): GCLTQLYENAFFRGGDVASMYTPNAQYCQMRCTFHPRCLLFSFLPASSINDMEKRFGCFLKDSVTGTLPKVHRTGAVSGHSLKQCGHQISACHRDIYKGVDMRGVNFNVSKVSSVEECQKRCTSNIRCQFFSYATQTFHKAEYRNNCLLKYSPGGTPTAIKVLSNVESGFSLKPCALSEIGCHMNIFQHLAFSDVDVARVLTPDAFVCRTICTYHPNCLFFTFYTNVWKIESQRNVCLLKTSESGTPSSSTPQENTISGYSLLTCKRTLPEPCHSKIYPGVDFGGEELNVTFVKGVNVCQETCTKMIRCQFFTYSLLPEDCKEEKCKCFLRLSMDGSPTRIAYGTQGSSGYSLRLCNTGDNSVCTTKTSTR

Row | EC50 [nM] | SMILES
1 | > 500 | O=C(Nc1cc(OCc2ccc(Cn3ccc(C4CC4)n3)cc2)cnn1)[C@H]1C[C@@H]1c1cccc(Cl)c1 (racemic) [Example 4, rac-(1S*,2S*)-2-(3-chlorophenyl)-N-(5-((4-((3-cyclopropyl-1H-pyrazol-1-yl)methyl)benzyl)oxy)pyridazin-3-yl)cyclopropane-1-carboxamide]
2 | 2.5 to 25 | Cc1ccnc([C@H]2C[C@@H]2C(=O)Nc2cc(NCc3cc(F)c4ncc(Cl)cc4c3)nc(C)n2)n1 [Example 91, (1S,2S)—N-(6-(((3-chloro-8-fluoroquinolin-6-yl)methyl)amino)-2-methylpyrimidin-4-yl)-2-(4-methylpyrimidin-2-yl)cyclopropane-1-carboxamide]
3 | > 500 | O=C(Nc1cc(OCc2ccc(Cn3cccn3)cc2)cnn1)[C@H]1C[C@@H]1c1cncc(Cl)c1 (racemic) [Example 1, rac-(1S*,2S*)—N-(5-((4-((1H-pyrazol-1-yl)methyl)benzyl)oxy)pyridazin-3-yl)-2-(5-chloropyridin-3-yl)cyclopropane-1-carboxamide]
4 | 2.5 to 25 | O=C(Nc1cc(NCc2cn3c(=O)n(C4CC4)ccc3n2)ccn1)[C@H]1C[C@@H]1c1cccc(Cl)c1 [Example 36, (1S,2S)-2-(3-chlorophenyl)-N-(4-(((6-cyclopropyl-5-oxo-5,6-dihydroimidazo[1,2-c]pyrimidin-2-yl)methyl)amino)pyridin-2-yl)cyclopropane-1-carboxamide]
5 | > 500 | O=C(Nc1cc(N2C[C@@H](O)C[C@@H]2C(=O)Nc2ccc(C3CC3)cc2)ncn1)[C@H]1C[C@@H]1c1cccc(Cl)c1 [Example 64, (2R,4S)-1-(6-((1S,2S)-2-(3-chlorophenyl)cyclopropane-1-carboxamido)pyrimidin-4-yl)-N-(4-cyclopropylphenyl)-4-hydroxypyrrolidine-2-carboxamide]
6 | > 500 | O=C(Nc1cc(OCc2ccc(-n3ccnc3)cc2)cnn1)[C@H]1C[C@@H]1c1cccc(Cl)c1 (racemic) [Example 12, rac-(1S*,2S*)—N-(5-((4-(1H-imidazol-1-yl)benzyl)oxy)pyridazin-3-yl)-2-(3-chlorophenyl)cyclopropane-1-carboxamide]
7 | 25 to 500 | CC(C)n1ccc2nc(CNc3cc(NC(=O)[C@H]4C[C@@H]4c4cccc(Cl)c4)ncn3)cn2c1=O [Example 38, (1S,2S)-2-(3-chlorophenyl)-N-(6-(((6-isopropyl-5-oxo-5,6-dihydroimidazo[1,2-c]pyrimidin-2-yl)methyl)amino)pyrimidin-4-yl)cyclopropane-1-carboxamide]
8 | 25 to 500 | O=C(Nc1cc(N2C[C@@H](O)CC2c2ccc(N3CC4CC4C3)nc2)ncn1)[C@H]1C[C@@H]1c1cccc(Cl)c1 (stereo partly drawn) [Example 67, (S,2S)—N-(6-((4S)-2-(6-(3-azabicyclo[3.1.0]hexan-3-yl)pyridin-3-yl)-4-hydroxypyrrolidin-1-yl)pyrimidin-4-yl)-2-(3-chlorophenyl)cyclopropane-1-carboxamide]
9 | > 500 | O=C(Nc1cc(OCc2ccc(Cn3cccn3)cc2)cnn1)[C@H]1C[C@@H]1c1cn[nH]c1 (racemic) [Example 6, rac-(1S*,2S*)—N-(5-((4-((1H-pyrazol-1-yl)methyl)benzyl)oxy)pyridazin-3-yl)-2-(1H-pyrazol-4-yl)cyclopropane-1-carboxamide]
10 | 2.5 to 25 | Cc1ccnc([C@H]2C[C@@H]2C(=O)Nc2cc(NCc3ccc(N4CC5CC5C4)nc3)ncn2)n1 (relative stereo) [Example 79, rac-(1S*,2S*)—N-(6-(((6-(3-azabicyclo[3.1.0]hexan-3-yl)pyridin-3-yl)methyl)amino)pyrimidin-4-yl)-2-(4-methylpyrimidin-2-yl)cyclopropane-1-carboxamide]
11 | 2.5 to 25 | O=C(Nc1cc(NCc2cn3nc(C4CC4)cc(N4CCOC4=O)c3n2)ncn1)[C@H]1C[C@@H]1c1cccc(Cl)c1 [Example 44, (1S,2S)-2-(3-chlorophenyl)-N-(6-(((6-cyclopropyl-8-(2-oxooxazolidin-3-yl)imidazo[1,2-b]pyridazin-2-yl)methyl)amino)pyrimidin-4-yl)cyclopropane-1-carboxamide]
12 | > 500 | O=C(Nc1cc(OCc2ccc(Cn3cccn3)cc2)cnn1)C1CC12C(=O)Nc1ccccc12 (centres unmarked) [Example 7, N-(5-((4-((1H-pyrazol-1-yl)methyl)benzyl)oxy)pyridazin-3-yl)-2′-oxospiro[cyclopropane-1,3′-indoline]-2-carboxamide]
13 | > 500 | Cc1ccnc([C@H]2C[C@@H]2C(=O)Nc2cc(N3C[C@@H](O)C[C@H]3c3ccc(N4CC5CC5C4)nc3)ncn2)n1 (mixture of isomers) [Example 70, rac-(1S*,2S*)—N-(6-((2S*,4S)-2-(6-(3-azabicyclo[3.1.0]hexan-3-yl)pyridin-3yl)-4-hydroxypyrrolidin-1-yl)pyrimidin-4-yl)-2-(4-methylpyrimidin-2-yl)cyclopropane-1-carboxamide]
14 | > 500 | O=C(Nc1cc(OCc2csc(-c3ccccc3)n2)cnn1)[C@H]1C[C@@H]1c1cccc(Cl)c1 (racemic) [Example 2, rac-(1S*,2S*)-2-(3-chlorophenyl)-N-(5-((2-phenylthiazol-4-yl)methoxy)pyridazin-3-yl)cyclopropane-1-carboxamide]
15 | > 500 | O=C(Nc1cc(NCc2ccc(Cn3ccccc3=O)cc2)cnn1)[C@H]1C[C@H]1c1cccc(Cl)c1 (racemic) [Example 19, rac-(1R*,2S*)-2-(3-chlorophenyl)-N-(5-((4-((2-oxopyridin-1 (2H)-yl)methyl)benzyl)amino)pyridazin-3-yl)cyclopropane-1-carboxamide]
16 | < 2.5 | O=C(Nc1cc(NCc2ccc(Cn3ccccc3=O)cc2)cnn1)[C@@H]1C[C@H]1c1cccc(Cl)c1 (single isomer, unassigned) [Example 16]
17 | 2.5 to 25 | O=C(Nc1cc(NCc2cnc3ccc(C4CC4)cc3c2)ccn1)[C@H]1C[C@@H]1c1cccc(Cl)c1 [Example 34, (1S,2S)-2-(3-chlorophenyl)-N-(4-(((6-cyclopropylquinolin-3-yl)methyl)amino)pyridin-2-yl)cyclopropane-1-carboxamide]
18 | 2.5 to 25 | CC(C)(O)CCc1cc(C2CC2)cc2cc(CNc3cc(NC(=O)[C@H]4C[C@@H]4c4cccc(Cl)c4)ncn3)nn12 [Example 51, (1S,2S)-2-(3-chlorophenyl)-N-(6-(((5-cyclopropyl-7-(3-hydroxy-3-methylbutyl)pyrazolo[1,5-a]pyridin-2-yl)methyl)amino)pyrimidin-4-yl)cyclopropane-1-carboxamide]
19 | 2.5 to 25 | O=C(Nc1cc(NCc2nc3c(N4CCOC4=O)cc(C4CC4)cn3n2)ncn1)[C@H]1C[C@@H]1c1cccc(Cl)c1 [Example 43, (1S,2S)-2-(3-chlorophenyl)-N-(6-(((6-cyclopropyl-8-(2-oxooxazolidin-3-yl)-[1,2,4]triazolo[1,5-a]pyridin-2-yl)methyl)amino)pyrimidin-4-yl)cyclopropane-1-carboxamide]
20 | > 500 | O=C(Nc1cc(OCc2ccc(-c3ncc[nH]3)cc2)cnn1)[C@H]1C[C@@H]1c1cccc(Cl)c1 (racemic) [Example 13, rac-(1S*,2S*)—N-(5-((4-(1H-imidazol-2-yl)benzyl)oxy)pyridazin-3-yl)-2-(3-chlorophenyl)cyclopropane-1-carboxamide]
21 | 2.5 to 25 | O=C(Nc1cc(NCc2ccc(Cn3cc(Cl)ccc3=O)cc2)cnn1)[C@H]1C[C@@H]1c1cccc(Cl)c1 (racemic) [Example 17, rac-(1S*,2S*)—N-(5-((4-((5-chloro-2-oxopyridin-1 (2H)-yl)methyl)benzyl)amino)pyridazin-3-yl)-2-(3-chlorophenyl)cyclopropane-1-carboxamide]
22 | 2.5 to 25 | O=C(O)CCc1cc(C2CC2)cc2cc(CNc3cc(NC(=O)[C@H]4C[C@@H]4c4cccc(Cl)c4)ncn3)nn12 [Example 48, 3-(2-(((6-((1S,2S)-2-(3-chlorophenyl)cyclopropane-1-carboxamido)pyrimidin-4-yl)amino)methyl)-5-cyclopropylpyrazolo[1,5-a]pyridin-7-yl)propanoic acid]
23 | 2.5 to 25 | Cc1ccnc([C@H]2C[C@@H]2C(=O)Nc2cc(NCc3nc4ncc(C5CC5)cn4n3)ncn2)n1 (racemic) [Example 78, rac-(1S*,2S*)—N-(6-(((6-cyclopropyl-[1,2,4]triazolo[1,5-a]pyrimidin-2-yl)methyl)amino)pyrimidin-4-yl)-2-(4-methylpyrimidin-2-yl)cyclopropane-1-carboxamide]
24 | 2.5 to 25 | CN1CCN(c2cc(Cl)cc3cc(CNc4cc(NC(=O)[C@H]5C[C@@H]5c5cccc(Cl)c5)ncn4)cnc23)CC1 [Example 59, (1S,2S)—N-(6-(((6-chloro-8-(4-methylpiperazin-1-yl)quinolin-3-yl)methyl)amino)pyrimidin-4-yl)-2-(3-chlorophenyl)cyclopropane-1-carboxamide]
25 | 2.5 to 25 | CN1CCN(c2cc(C3CC3)cn3nc(CNc4cc(NC(=O)[C@H]5C[C@@H]5c5cccc(Cl)c5)ncn4)nc23)CC1 [Example 58, (1S,2S)-2-(3-chlorophenyl)-N-(6-(((6-cyclopropyl-8-(4-methylpiperazin-1-yl)-[1,2,4]triazolo[1,5-a]pyridin-2-yl)methyl)amino)pyrimidin-4-yl)cyclopropane-1-carboxamide]
26 | < 2.5 | O=C1CN(c2cc(C3CC3)cn3nc(CNc4cc(NC(=O)[C@H]5C[C@@H]5c5cc(Cl)ccn5)ncn4)nc23)C(=O)N1 [Example 68, (1S,2S)-2-(4-chloropyridin-2-yl)-N-(6-(((6-cyclopropyl-8-(2,4-dioxoimidazolidin-1-yl)-[1,2,4]triazolo[1,5-a]pyridin-2-yl)methyl)amino)pyrimidin-4-yl)cyclopropane-1-carboxamide]
